# Source: ChEMBL document CHEMBL4270553, “Synthesis and anticancer activity of new dihydropyrimidinone derivatives” (Eur J Med Chem, 2018)
# How the values were obtained:
# Format in all cases: functional
# SR = experiment: Antiproliferative activity against human SR cells assessed as growth inhibition at 10 uM after 48 hrs by sulforhodamine B assay relative to control; conditions: read-out: GI
# UACC-62 = experiment: Antiproliferative activity against human UACC62 cells assessed as growth inhibition at 10 uM after 48 hrs by sulforhodamine B assay relative to control; conditions: UACC-62, 48 h, read-out: GI
# MOLT-4 = experiment: Antiproliferative activity against human MOLT4 cells assessed as growth inhibition at 10 uM after 48 hrs by sulforhodamine B assay relative to control; conditions: MOLT-4, 48 h, read-out: GI
# HL-60(TB) = experiment: Antiproliferative activity against human HL-60(TB) cells assessed as growth inhibition at 10 uM after 48 hrs by sulforhodamine B assay relative to control; conditions: HL-60, 48 h, read-out: GI
# PC-3 = experiment: Antiproliferative activity against human PC3 cells assessed as growth inhibition at 10 uM after 48 hrs by sulforhodamine B assay relative to control; conditions: PC-3, 48 h, read-out: GI
# NCI-H522 = experiment: Antiproliferative activity against human NCI-H522 cells assessed as growth inhibition at 10 uM after 48 hrs by sulforhodamine B assay relative to control; conditions: NCI-H522, 48 h, read-out: GI
# MCF7 = experiment: Antiproliferative activity against human MCF7 cells assessed as growth inhibition at 10 uM after 48 hrs by sulforhodamine B assay relative to control; conditions: MCF7, 48 h, read-out: GI
# CAKI-1 = experiment: Antiproliferative activity against human Caki1 cells assessed as growth inhibition at 10 uM after 48 hrs by sulforhodamine B assay relative to control; conditions: CAKI-1, 48 h, read-out: GI
# UO-31 = experiment: Antiproliferative activity against human UO31 cells assessed as growth inhibition at 10 uM after 48 hrs by sulforhodamine B assay relative to control; conditions: UO-31, 48 h, read-out: GI
# HCT-15 = experiment: Antiproliferative activity against human HCT15 cells assessed as growth inhibition at 10 uM after 48 hrs by sulforhodamine B assay relative to control; conditions: HCT-15, 48 h, read-out: GI
# ACHN = experiment: Antiproliferative activity against human ACHN cells assessed as growth inhibition at 10 uM after 48 hrs by sulforhodamine B assay relative to control; conditions: read-out: GI
# SF-295 = experiment: Antiproliferative activity against human SF295 cells assessed as growth inhibition at 10 uM after 48 hrs by sulforhodamine B assay relative to control; conditions: SF-295, 48 h, read-out: GI
# NCI/ADR-RES = experiment: Antiproliferative activity against human NCI/ADR-RES cells assessed as growth inhibition at 10 uM after 48 hrs by sulforhodamine B assay relative to control; conditions: read-out: GI
# NCI-H322M = experiment: Antiproliferative activity against human NCI-H322M cells assessed as growth inhibition at 10 uM after 48 hrs by sulforhodamine B assay relative to control; conditions: read-out: GI
# K562 = experiment: Antiproliferative activity against human K562 cells assessed as growth inhibition at 10 uM after 48 hrs by sulforhodamine B assay relative to control; conditions: K562, 48 h, read-out: GI
# HCT-116 = experiment: Antiproliferative activity against human HCT116 cells assessed as growth inhibition at 10 uM after 48 hrs by sulforhodamine B assay relative to control; conditions: HCT-116, 48 h, read-out: GI
# LOX IMVI = experiment: Antiproliferative activity against human LOXIMVI cells assessed as growth inhibition at 10 uM after 48 hrs by sulforhodamine B assay relative to control; conditions: read-out: GI
# MDA-MB-468 = experiment: Antiproliferative activity against human MDA-MB-468 cells assessed as growth inhibition at 10 uM after 48 hrs by sulforhodamine B assay relative to control; conditions: MDA-MB-468, 48 h, read-out: GI
# OVCAR-4 = experiment: Antiproliferative activity against human OVCAR4 cells assessed as growth inhibition at 10 uM after 48 hrs by sulforhodamine B assay relative to control; conditions: OVCAR-4, 48 h, read-out: GI
# SK-MEL-5 = experiment: Antiproliferative activity against human SK-MEL-5 cells assessed as growth inhibition at 10 uM after 48 hrs by sulforhodamine B assay relative to control; conditions: SK-MEL-5, 48 h, read-out: GI
# T47D = experiment: Antiproliferative activity against human T47D cells assessed as growth inhibition at 10 uM after 48 hrs by sulforhodamine B assay relative to control; conditions: read-out: GI
# NCI-H460 = experiment: Antiproliferative activity against human NCI-H460 cells assessed as growth inhibition at 10 uM after 48 hrs by sulforhodamine B assay relative to control; conditions: NCI-H460, 48 h, read-out: GI
# A549 = experiment: Antiproliferative activity against human A549/ATCC cells assessed as growth inhibition at 10 uM after 48 hrs by sulforhodamine B assay relative to control; conditions: A549, 48 h, read-out: GI
Structure (SMILES),inhibition of growth at 10 µM (SR),inhibition of growth at 10 µM (UACC-62),inhibition of growth at 10 µM (MOLT-4),inhibition of growth at 10 µM (HL-60(TB)),inhibition of growth at 10 µM (NCI-H522),inhibition of growth at 10 µM (MCF7),inhibition of growth at 10 µM (CAKI-1),inhibition of growth at 10 µM (UO-31),inhibition of growth at 10 µM (HCT-15),inhibition of growth at 10 µM (ACHN),inhibition of growth at 10 µM (SF-295),inhibition of growth at 10 µM (NCI/ADR-RES),inhibition of growth at 10 µM (NCI-H322M),inhibition of growth at 10 µM (K562),inhibition of growth at 10 µM (HCT-116),inhibition of growth at 10 µM (LOX IMVI),inhibition of growth at 10 µM (MDA-MB-468),inhibition of growth at 10 µM (OVCAR-4),inhibition of growth at 10 µM (SK-MEL-5),inhibition of growth at 10 µM (T47D),other results
CCOC(=O)C1=C(CSc2nc3ccccc3[nH]2)N(C)C(=O)NC1c1ccccc1 (stereo not drawn),1%,11%,14%,6%,3%,14%,2%,4%,7%,2%,7%,6%,12%,10%,6%,11%,1%,–,–,–,inhibition of growth at 10 µM (PC-3): 8%
CCOC(=O)C1=C(CSC(=S)N2CCN(c3ccc(OC)cc3)CC2)N(C)C(=O)NC1c1ccccc1 (stereo not drawn),63%,42%,49%,32%,37%,30%,26%,55%,60%,21%,15%,13%,17%,47%,57%,33%,21%,29%,51%,59%,inhibition of growth at 10 µM (PC-3): 53%; inhibition of growth at 10 µM (NCI-H460): 39%; inhibition of growth at 10 µM (A549): 33%
CCOC(=O)C1=C(CSc2nnnn2-c2ccccc2)N(C)C(=O)NC1c1ccccc1 (stereo not drawn),13%,17%,26%,7%,14%,15%,14%,21%,8%,3%,11%,14%,18%,17%,12%,14%,3%,4%,2%,17%,–
CCOC(=O)C1=C(CSc2nnc(-c3ccccc3)o2)N(C)C(=O)NC1c1ccccc1 (stereo not drawn),16%,10%,29%,11%,16%,11%,14%,34%,15%,3%,14%,15%,15%,34%,19%,27%,17%,14%,10%,25%,inhibition of growth at 10 µM (PC-3): 20%; inhibition of growth at 10 µM (A549): 5%
CCOC(=O)C1=C(Cn2cc(CO)nn2)N(C)C(=O)NC1c1ccccc1 (stereo not drawn),2%,–,11%,2%,5%,12%,8%,7%,6%,2%,4%,4%,9%,10%,5%,7%,–,3%,–,1%,–
CCOC(=O)C1=C(CSC2=NCCS2)N(C)C(=O)NC1c1ccccc1 (stereo not drawn),40%,27%,19%,10%,19%,19%,24%,21%,28%,17%,10%,15%,27%,24%,10%,16%,11%,16%,4%,37%,inhibition of growth at 10 µM (NCI-H460): 2%; inhibition of growth at 10 µM (A549): 16%
CCOC(=O)C1=C(CN(C2CCCCC2)C2CCCCC2)N(C)C(=O)NC1c1ccccc1 (stereo not drawn),20%,23%,35%,37%,18%,36%,30%,27%,11%,13%,19%,7%,5%,31%,33%,13%,21%,26%,19%,46%,inhibition of growth at 10 µM (PC-3): 58%; inhibition of growth at 10 µM (NCI-H460): 13%; inhibition of growth at 10 µM (A549): 33%
CCOC(=O)C1=C(CSC(=S)N2CCOCC2)N(C)C(=O)NC1c1ccccc1 (stereo not drawn),12%,16%,5%,4%,7%,14%,–,9%,7%,7%,9%,6%,18%,83%,6%,12%,6%,–,1%,18%,inhibition of growth at 10 µM (A549): 4%
CCOC(=O)C1=C(CN2CCCC2)N(C)C(=O)NC1c1ccccc1 (stereo not drawn),10%,–,4%,–,4%,13%,9%,8%,6%,–,9%,3%,9%,1%,2%,8%,–,–,–,1%,–
